According to the NIST ThermoML archive (doi:10.1016/j.jct.2016.03.034):

Tests used:
[1] = 101.33 kPa, Liquid; for mass density: Vibrating tube method; for viscosity: Capillary tube (Ostwald / Ubbelohde) method
[2] = xn = mol fraction of the nth substance listed; conditions: 100 kPa, Liquid, x1 = 1; for viscosity: Capillary tube (Ostwald / Ubbelohde) method; for mass density: Vibrating tube method

CCCCCCCCn1cc[n+](C)c1.O=S(=O)([N-]S(=O)(=O)C(F)(F)F)C(F)(F)F
[1]
Conditions | mass density [kg/m3] | viscosity [mPa·s]
273.15 K | 1340.42 | –
283.15 K | 1331.26 | 208.88
293.15 K | 1324.82 | 114.86
298.15 K | 1320.47 | 88.59
303.15 K | 1316.05 | 69.08
308.15 K | 1311.64 | 55.38
313.15 K | 1307.24 | 45.03
318.15 K | 1302.85 | 37.25
323.15 K | 1298.47 | 30.83

CCCCCC[n+]1ccn(C)c1.O=S(=O)([N-]S(=O)(=O)C(F)(F)F)C(F)(F)F
[1]
Conditions | mass density [kg/m3] | viscosity [mPa·s]
273.15 K | 1395.43 | 279.26
278.15 K | 1390.66 | –
283.15 K | 1386.02 | 148.8
288.15 K | 1381.44 | –
293.15 K | 1376.84 | 87.29
298.15 K | 1371.81 | 70.52
303.15 K | 1367.68 | 55.92
308.15 K | 1363.11 | 47.46
313.15 K | 1357.51 | 37.22
318.15 K | 1352.62 | 31.35
323.15 K | 1349.46 | 25.95

CCn1cc[n+](C)c1.O=S(=O)([N-]S(=O)(=O)C(F)(F)F)C(F)(F)F
[1]
Conditions | mass density [kg/m3] | viscosity [mPa·s]
293.15 K | 1523.44 | 37.8
298.15 K | 1518.3 | 31.79
303.15 K | 1513.11 | 26.84
308.15 K | 1507.9 | 22.9
313.15 K | 1502.68 | 19.75
318.15 K | 1497.48 | 17.05
323.15 K | 1492.24 | 15.02

CCCCCCCCn1cc[n+](C)c1.O=S(=O)([N-]S(=O)(=O)C(F)(F)F)C(F)(F)F + O=C1CCCO1
[2]
Conditions | mass density [kg/m3] | viscosity [mPa·s]
293.15 K | 1324.82 | 114.86
298.15 K | 1320.47 | 88.59
303.15 K | 1316.05 | 69.08
308.15 K | 1311.64 | 56.43
313.15 K | 1307.24 | 45.03
318.15 K | 1302.85 | 37.25
323.15 K | 1298.47 | 30.83

CCCCCC[n+]1ccn(C)c1.O=S(=O)([N-]S(=O)(=O)C(F)(F)F)C(F)(F)F + O=C1CCCO1
[2]
Conditions | mass density [kg/m3] | viscosity [mPa·s]
293.15 K | 1376.84 | 87.29
298.15 K | 1371.81 | 70.52
303.15 K | 1367.68 | 55.92
308.15 K | 1363.11 | 47.46
313.15 K | 1357.51 | 37.22
318.15 K | 1352.62 | 31.35
323.15 K | 1349.46 | 25.95

CCn1cc[n+](C)c1.O=S(=O)([N-]S(=O)(=O)C(F)(F)F)C(F)(F)F + O=C1CCCO1
[2]
Conditions | mass density [kg/m3] | viscosity [mPa·s]
293.15 K | 1523.44 | 37.8
298.15 K | 1518.3 | 31.79
303.15 K | 1513.11 | 26.84
308.15 K | 1507.9 | 22.9
313.15 K | 1502.68 | 19.75
318.15 K | 1497.48 | 17.05
323.15 K | 1492.24 | 15.02
